This is an account of results in paper PMC6934184, “Selective DNA-PKcs inhibition extends the therapeutic index of localized radiotherapy and chemotherapy” (The Journal of Clinical Investigation, 2019).

For the assay, the target named is T1, PAK1 (Homo sapiens, UniProt Q13153).
T1 construct: purchased Thermo Fisher Scientific (Life Technologies) SelectScreen
In words: SelectScreen Z'LYTE. Format: biochemical. In a few lines: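 Percent values come from Thermo SelectScreen profiling of NU5455, combining activity and binding assays. CSF1R was run in Z'LYTE format at Km app ATP, and CAMK1 in Adapta format with ATP listed at 10.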

T1 sequence (Q13153 whole entry): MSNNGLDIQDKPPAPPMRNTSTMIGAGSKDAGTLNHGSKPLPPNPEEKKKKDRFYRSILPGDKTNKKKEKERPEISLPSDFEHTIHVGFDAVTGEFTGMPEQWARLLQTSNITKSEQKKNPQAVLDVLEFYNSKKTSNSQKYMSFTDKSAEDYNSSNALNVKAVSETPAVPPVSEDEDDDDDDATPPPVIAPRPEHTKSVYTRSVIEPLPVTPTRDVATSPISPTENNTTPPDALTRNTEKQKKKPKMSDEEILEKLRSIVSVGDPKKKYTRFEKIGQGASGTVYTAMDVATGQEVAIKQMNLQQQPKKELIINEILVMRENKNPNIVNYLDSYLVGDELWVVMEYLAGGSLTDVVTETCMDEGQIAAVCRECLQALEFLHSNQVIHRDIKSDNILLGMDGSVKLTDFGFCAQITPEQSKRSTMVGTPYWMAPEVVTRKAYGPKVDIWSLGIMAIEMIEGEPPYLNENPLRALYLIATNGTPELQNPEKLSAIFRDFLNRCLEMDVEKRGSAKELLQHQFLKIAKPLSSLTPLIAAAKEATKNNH

Turning to `CN(C(=O)CN1CCOCC1)c1ccc2sc3c(-c4cccc5c(=O)cc(N6CC7CCC(C6)O7)oc45)cccc3c2c1` [NU5455], the inhibition at 1 µM is -4.4%.

A word on the inhibition: it is the drop in the measured response relative to a control, in per cent.
